System: Staphylococcus haemolyticus CNCM I-4170
Test: Protocol A: in-vitro malodor inhibition (free thiol groups from Cys-Gly precursor, DTNB absorbance at 412 nm)
Assay type: cell-based
Source text: Further details of such a screening and % inhibition measurement and definition are described further on in this application. The precursor used, which may also be in the form of a human sweat sample, typically generates malodorant sulfur compounds when acted upon by the Staphylococcus haemolyticus cells, or by a β-lyase present in such cells. The malodor inhibition coefficient, as defined herein, reflects the % of reduction in free SH groups generated in the above-mentioned medium by the enzymatic activity of the bacterial cells when in presence of the MOC ingredient or MOC composition in question, as compared to the same measurement in their absence. […] Alternatively, the bacterial cells can be replaced by a β-lyase present in said cells. […] Detection of enzymatic activity inhibition is measured via the sulfur groups, namely thiol groups, freed from the precursor bacterial transformation, by comparison with the reference experiment in the absence of the respective MOC ingredient, said sulfur groups being detected by interaction with DTNB, a known chemical detector system for thiols. The reaction can be monitored by absorbance reading at 412 nm. The procedure can be performed indifferently with either a purified or semi-purified enzyme or intact bacterial cells, as in the case described here. Malodor inhibition coefficient is measured as a function of the percentage of free thiol groups in the medium, over time, by an absorbance method, and reflects the reduction in malodor obtained in the presence of the MOC ingredients and compositions. […] At the end of the growth phase, the bacterial cells were harvested by centrifugation at 5000 rpm for 15 min. The cell pellet was then washed with 0.1 volumes of sterile potassium phosphate buffer 0.1 M, pH 7.5. […] The precursor was used at 0.17 mM final concentration. • Detection reagent DTNB • DTNB (5,5′-Dithio-bis-(2-nitrobenzoic acid; […]

| Substance | Ingredient Malodor Inhibition Value (%) (0.0012 w/v % in medium) | Ingredient Malodor Inhibition Value (%) (0.0025 w/v % in medium) | Ingredient Malodor Inhibition Value (%) (0.006 w/v % in medium) | Ingredient Malodor Inhibition Value (%) (0.0125 w/v % in medium) | Ingredient Malodor Inhibition Value (%) (0.025 w/v % in medium) | Ingredient Malodor Inhibition Value (%) (0.05 w/v % in medium) | Ingredient Malodor Inhibition Value (%) (0.1 w/v % in medium) | Ingredient Malodor Inhibition Value (%) (Table 2, 0.0012 w/v % in medium) | Ingredient Malodor Inhibition Value (%) (Table 2, 0.0025 w/v % in medium) | Ingredient Malodor Inhibition Value (%) (Table 2, 0.005 w/v % in medium) | Ingredient Malodor Inhibition Value (%) (Table 2, 0.025 w/v % in medium) | Ingredient Malodor Inhibition Value (%) (Table 2, 0.05 w/v % in medium) |
| --- | --- | --- | --- | --- | --- | --- | --- | --- | --- | --- | --- | --- |
| Terpenyl acetate | 0.00 | 0.00 | 0.00 | 0.00 | 0.00 | 6.81 | 00.00 |  |  |  |  |  |
| Vetyverone |  |  |  |  |  |  |  | 10.9 | 10.40 | 44.6 | 47.1 | 54.2 |
